# How the values were obtained:
# Type in all cases: physicochemical
# [1] = Solubility measurement of Compound 1 Phosphate, saturated in different solvent systems, measured by HPLC
# Method: The Compound 1 Phosphate sample was saturated in different solvent systems (Table 4) at 25° C. and 50° C., respectively. Each solubility was measured by HPLC.
# [2] = Phase equilibration of form mixtures, relative stability of Compound 1 Phosphate forms (XRPD); details: mixture of Forms I, II
# Method: The relative stability of the three forms (Forms I, II, and III) as well as amorphous form of Compound 1 Phosphate studied and compared by phase equilibration of mixture experiments in EtOH and in a mixture solvent of EtOH/H2O (9/1). As summarized in Table 16, Compound 1 Phosphate (Form I) was mixed and slurred with other forms in EtOH and in a mixed solvent of EtOH/H2O (9/1) at 50° C. for 6 h respectively.
# [3] = Solubility measurement of Compound 1 Phosphate, saturated in different solvent systems, measured by HPLC; details: DCM, 50° C. column, measured at 40° C.
smiles,measurement,setting,value
"COc1cc2[nH]nc(-c3ccc(N4CCN5C[C@H](O)C[C@H]5C4)nc3)c2nc1-c1cccc(C)c1C.O=P(O)(O)O [Compound 1 Phosphate, (7R,8aS)-2-(5-(5-(2,3-dimethylphenyl)-6-methoxy-1H-pyrazolo[4,3-b]pyridin-3-yl)pyridin-2-yl)octahydropyrrolo[1,2-a]pyrazin-7-ol phosphate]",Solubility,"[1]; 1,4-dioxane, 25° C.",150 µg/mL
same,Solubility,"[1]; 1,4-dioxane, 50° C.",230 µg/mL
same,Solubility,"[1]; 2-Butanone, 25° C.",100 µg/mL
same,Solubility,"[1]; 2-Butanone, 50° C.",130 µg/mL
same,Solubility,"[1]; Acetone, 25° C.",70 µg/mL
same,Solubility,"[1]; Acetone, 50° C.",100 µg/mL
same,Solubility,"[1]; CH3CN, 25° C.",<10 µg/mL
same,Solubility,"[1]; CH3CN, 50° C.",10 µg/mL
same,Solubility,"[1]; CHCl3, 25° C.",60 µg/mL
same,Solubility,"[1]; CHCl3, 50° C.",130 µg/mL
same,Solubility,"[1]; DCM, 25° C.",30 µg/mL
same,Solubility,"[1]; DMF, 25° C.",14410 µg/mL
same,Solubility,"[1]; DMF, 50° C.",19060 µg/mL
same,Solubility,"[1]; DMSO, 25° C.",33740 µg/mL
same,Solubility,"[1]; DMSO, 50° C.",44990 µg/mL
same,Solubility,"[1]; EtOAc, 25° C.",50 µg/mL
same,Solubility,"[1]; EtOAc, 50° C.",60 µg/mL
same,Solubility,"[1]; EtOH, 25° C.",530 µg/mL
same,Solubility,"[1]; EtOH, 50° C.",680 µg/mL
same,Solubility,"[1]; Ethyl formate, 25° C.",120 µg/mL
same,Solubility,"[1]; Ethyl formate, 50° C.",140 µg/mL
same,Solubility,"[1]; H2O, 25° C.",260 µg/mL
same,Solubility,"[1]; H2O, 50° C.",1100 µg/mL
same,Solubility,"[1]; Heptane, 25° C.",<10 µg/mL
same,Solubility,"[1]; Heptane, 50° C.",<10 µg/mL
same,Solubility,"[1]; IPA, 25° C.",230 µg/mL
same,Solubility,"[1]; IPA, 50° C.",280 µg/mL
same,Solubility,"[1]; IPAc, 25° C.",20 µg/mL
same,Solubility,"[1]; IPAc, 50° C.",30 µg/mL
same,Solubility,"[1]; MIBK, 25° C.",160 µg/mL
same,Solubility,"[1]; MIBK, 50° C.",160 µg/mL
same,Solubility,"[1]; MTBE, 25° C.",60 µg/mL
same,Solubility,"[1]; MTBE, 50° C.",70 µg/mL
same,Solubility,"[1]; MeOEtOH, 25° C.",4140 µg/mL
same,Solubility,"[1]; MeOEtOH, 50° C.",5570 µg/mL
same,Solubility,"[1]; MeOH, 25° C.",2260 µg/mL
same,Solubility,"[1]; MeOH, 50° C.",2440 µg/mL
same,Solubility,"[1]; THF, 25° C.",60 µg/mL
same,Solubility,"[1]; THF, 50° C.",70 µg/mL
same,Solubility,"[1]; Toluene, 25° C.",<10 µg/mL
same,Solubility,"[1]; Toluene, 50° C.",20 µg/mL
same,Solubility (almost insoluble),"[1]; in CH3CN, CHCl3, DCM, 1,4-dioxane, MIBK, toluene, THF, acetone, n-BuOH, MTBE, EtOH, EtOAc, ethyl formate, heptane, iso-butyl acetate, IPAc, n-PrOH, IPA, MEK at 25° C. and 50° C., and in H2O at 25° C.",< 1000 µg/mL
same,Solubility (relatively good solubility),"[1]; in DMF and DMSO, at both 25° C. and 50° C.",> 10000 µg/mL
same,Solubility (slightly soluble),"[1]; in MeOH and MeOEtOH at 25° C. and 50° C., and in H2O at 50° C.",1000 to 10000 µg/mL
same,Solubility,"[1]; iso-Butyl acetate, 25° C.",110 µg/mL
same,Solubility,"[1]; iso-Butyl acetate, 50° C.",150 µg/mL
same,Solubility,"[1]; n-BuOH, 25° C.",360 µg/mL
same,Solubility,"[1]; n-BuOH, 50° C.",470 µg/mL
same,Solubility,"[1]; n-PrOH, 25° C.",400 µg/mL
same,Solubility,"[1]; n-PrOH, 50° C.",400 µg/mL
same,Product Solid Form,[2]; III and Amorphous slurried in EtOH at 50° C. for 6 h,transformed to Form I
same,Product Solid Form,[2]; III and Amorphous slurried in EtOH/H2O (9/1) at 50° C. for 6 h,transformed to Form I
same,Solubility,[3],0.05 (40° C.) mg/mL
